Key:
[1] = tested on: ABUTH (Abutilon theophrasti); assay: Postemergence herbicidal evaluation; type: in vivo, Medic.; conditions: postemergence
Summary of the method: (§1)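 Visual 0–9 injury scores versus control plants, covering stand, vigour, malformation, size, chlorosis and general appearance, taken four to five weeks post-spray and averaged over replicate tests. Plants were sprayed at roughly two weeks old and held on greenhouse benches.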

[2] = tested on: AMBEL (Ambrosia artemisifolia); assay: Postemergence herbicidal evaluation; type: in vivo, L.; conditions: postemergence
Summary of the method: as §1

[3] = tested on: CASOB (Cassia obtusifolia); assay: Postemergence herbicidal evaluation; type: in vivo, L.; conditions: postemergence
Summary of the method: as §1

[4] = tested on: CHEAL (Chenopodium album); assay: Postemergence herbicidal evaluation; type: in vivo, L.; conditions: postemergence
Summary of the method: as §1

GALAP (Galium aparine) [5] = assay: Postemergence herbicidal evaluation; type: in vivo; conditions: postemergence
Summary of the method: as §1

[6] = tested on: IPOHE (Ipomoea hederacea); assay: Postemergence herbicidal evaluation; type: in vivo, (L.) Jacq.; conditions: postemergence
Summary of the method: as §1

[7] = tested on: ECHCG (Echinochloa crus-galli); assay: Postemergence herbicidal evaluation; type: in vivo, (L.) Beau; conditions: postemergence
Summary of the method: as §1

[8] = tested on: GLXMAW (Soybean, Williams); assay: Postemergence herbicidal evaluation; type: in vivo, Glycine max, (L.) Merr. cv Williams; conditions: postemergence
Summary of the method: as §1

ORYSAT (Rice, Tebonnet) [9] = assay: Postemergence herbicidal evaluation; type: in vivo, Oryza sativa, (L.) Tebonnet; conditions: postemergence
Summary of the method: as §1

[10] = tested on: TRZAWR (Wheat, Winter, cv Riband); assay: Postemergence herbicidal evaluation; type: in vivo, Triticum aestivum; conditions: postemergence
Summary of the method: as §1

ZEAMX (Corn, Field) [11] = assay: Postemergence herbicidal evaluation; type: in vivo, Zea mays, L.; conditions: postemergence
Summary of the method: as §1

[12] = tested on: ABUTH (Abutilon theophrasti); assay: Preemergence herbicidal evaluation; type: in vivo, Medic.; conditions: preemergence, rated 4-5 weeks after treatment
[13] = tested on: AMBEL (Ambrosia artemisifolia); assay: Preemergence herbicidal evaluation; type: in vivo, L.; conditions: preemergence, rated 4-5 weeks after treatment
Summary of the method: (§2)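 Steps: mix seeds with potting soil; plant on ~1 inch soil per cup; spray compound in aqueous acetone; hold on greenhouse benches with routine watering; rate 0–9 visually against control at 4–5 weeks.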

GALAP (Galium aparine) [14] = assay: Preemergence herbicidal evaluation; type: in vivo; conditions: preemergence, rated 4-5 weeks after treatment
Summary of the method: as §2

[15] = tested on: IPOHE (Ipomoea hederacea); assay: Preemergence herbicidal evaluation; type: in vivo, (L.) Jacq.; conditions: preemergence, rated 4-5 weeks after treatment
[16] = tested on: ECHCG (Echinochloa crus-galli); assay: Preemergence herbicidal evaluation; type: in vivo, (L.) Beau; conditions: preemergence, rated 4-5 weeks after treatment
Summary of the method: as §2

GLXMA (Soybean) = assay: Preemergence herbicidal evaluation; type: in vivo, Glycine max, (L.) Merr.; conditions: preemergence, rated 4-5 weeks after treatment
ZEAMX (Corn, Field) [17] = assay: Preemergence herbicidal evaluation; type: in vivo, Zea mays, L.; conditions: preemergence, rated 4-5 weeks after treatment
[18] = tested on: ECHORC (Echinochloa oryzoides); assay: Flooded paddy, preemergence weed control; type: in vivo, Echinochloa oryzoides (Ard.) Fritsch.; conditions: rated 3-4 weeks after treatment, 0-9 rating scale
Summary of the method: (§3)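 Scoring used a 0-9 visual scale relative to control. Before that, seeds or propagules were planted shallowly in silt loam and flooded to 1.5–3 cm, a depth maintained throughout, with greenhouse care during the test.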

CYPIR (Cyperus iria) = assay: Flooded paddy, preemergence weed control; type: in vivo; conditions: rated 3-4 weeks after treatment, 0-9 rating scale
Summary of the method: as §3

[19] = tested on: MOOVA (Monochoria vaginalis); assay: Flooded paddy, preemergence weed control; type: in vivo, Presl.; conditions: rated 3-4 weeks after treatment, 0-9 rating scale
Summary of the method: as §3

[20] = tested on: SAGPY (Sagittaria pygmaea); assay: Flooded paddy, preemergence weed control; type: in vivo, L.; conditions: rated 3-4 weeks after treatment, 0-9 rating scale
Summary of the method: as §3

ORYSAT (Rice, Tebonnet) [21] = assay: Flooded paddy, post-transplant rice tolerance; type: in vivo, Oryza sativa, (L.) Tebonnet; conditions: in vivo
Summary of the method: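 Steps: transplant two ten-day-old seedlings into silt loam; flood to 1.5-3 cm above soil; apply herbicide post-transplant; maintain water on greenhouse benches; rate stand, vigor, malformation, size and chlorosis on a 0-9 visual scale versus control.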

1-methyl-3-[3-(4-oxo-delta-2-1,2,5-thiadiazolin-3-yl)-1,2-benzisothiazol-5-yl]-6-(trifluoromethyl)uracil S′,S′-dioxide [Compound 92]
5.0: AMBEL herbicidal rating ([2]; rate 0.0620 kg/ha) | CASOB herbicidal rating ([3]; rate 0.0620 kg/ha) | CASOB herbicidal rating ([3]; rate 0.1250 kg/ha) | GLXMAW herbicidal rating ([8]; rate 0.0320 kg/ha) | GLXMAW herbicidal rating ([8]; rate 0.0620 kg/ha)
8.0: IPOHE herbicidal rating ([6]; rate 0.0620 kg/ha) | IPOHE herbicidal rating ([6]; rate 0.1250 kg/ha) | CYPIR herbicidal rating (CYPIR (Cyperus iria); rate 0.1250 kg/ha) | MOOVA herbicidal rating ([19]; rate 0.1250 kg/ha)
5.5: GLXMAW herbicidal rating ([8]; rate 0.1250 kg/ha)
4.0: CASOB herbicidal rating ([3]; rate 0.0320 kg/ha) | GALAP herbicidal rating (GALAP (Galium aparine) [5]; rate 0.1250 kg/ha) | ECHCG herbicidal rating ([7]; rate 0.1250 kg/ha) | Preemergence herbicidal rating IPOHE ([15]; rate 0.2500 kg/ha)
1.0: ORYSAT herbicidal rating (ORYSAT (Rice, Tebonnet) [9]; rate 0.0320 kg/ha) | ORYSAT herbicidal rating (ORYSAT (Rice, Tebonnet) [9]; rate 0.0620 kg/ha) | ORYSAT herbicidal rating (ORYSAT (Rice, Tebonnet) [9]; rate 0.1250 kg/ha) | TRZAWR herbicidal rating ([10]; rate 0.0320 kg/ha)
2.0: GALAP herbicidal rating (GALAP (Galium aparine) [5]; rate 0.0320 kg/ha) | ECHCG herbicidal rating ([7]; rate 0.0320 kg/ha) | ZEAMX herbicidal rating (ZEAMX (Corn, Field) [11]; rate 0.0320 kg/ha) | Preemergence herbicidal rating GALAP (GALAP (Galium aparine) [14]; rate 0.2500 kg/ha)
0.0: Preemergence herbicidal rating ABUTH ([12]; rate 0.0620 kg/ha) | Preemergence herbicidal rating ABUTH ([12]; rate 0.1250 kg/ha) | Preemergence herbicidal rating AMBEL ([13]; rate 0.0620 kg/ha) | Preemergence herbicidal rating AMBEL ([13]; rate 0.1250 kg/ha) | Preemergence herbicidal rating AMBEL ([13]; rate 0.2500 kg/ha) | Preemergence herbicidal rating GALAP (GALAP (Galium aparine) [14]; rate 0.0620 kg/ha) | Preemergence herbicidal rating GALAP (GALAP (Galium aparine) [14]; rate 0.1250 kg/ha) | Preemergence herbicidal rating IPOHE ([15]; rate 0.0620 kg/ha) | Preemergence herbicidal rating IPOHE ([15]; rate 0.1250 kg/ha) | Preemergence herbicidal rating ECHCG ([16]; rate 0.0620 kg/ha) | Preemergence herbicidal rating ECHCG ([16]; rate 0.1250 kg/ha) | Preemergence herbicidal rating ECHCG ([16]; rate 0.2500 kg/ha) | Preemergence herbicidal rating GLXMA (GLXMA (Soybean); rate 0.0620 kg/ha) | Preemergence herbicidal rating GLXMA (GLXMA (Soybean); rate 0.1250 kg/ha) | Preemergence herbicidal rating GLXMA (GLXMA (Soybean); rate 0.2500 kg/ha) | Preemergence herbicidal rating ZEAMX (ZEAMX (Corn, Field) [17]; rate 0.0620 kg/ha) | Preemergence herbicidal rating ZEAMX (ZEAMX (Corn, Field) [17]; rate 0.1250 kg/ha) | Preemergence herbicidal rating ZEAMX (ZEAMX (Corn, Field) [17]; rate 0.2500 kg/ha) | ECHORC herbicidal rating ([18]; rate 0.0320 kg/ha) | ECHORC herbicidal rating ([18]; rate 0.1250 kg/ha) | CYPIR herbicidal rating (CYPIR (Cyperus iria); rate 0.0320 kg/ha) | MOOVA herbicidal rating ([19]; rate 0.0320 kg/ha) | SAGPY herbicidal rating ([20]; rate 0.0320 kg/ha) | SAGPY herbicidal rating ([20]; rate 0.1250 kg/ha) | ORYSAT herbicidal rating (transplanted rice tolerance) (ORYSAT (Rice, Tebonnet) [21])
6.0: ABUTH herbicidal rating ([1]; rate 0.0320 kg/ha) | AMBEL herbicidal rating ([2]; rate 0.1250 kg/ha) | CHEAL herbicidal rating ([4]; rate 0.0620 kg/ha) | CHEAL herbicidal rating ([4]; rate 0.1250 kg/ha) | IPOHE herbicidal rating ([6]; rate 0.0320 kg/ha)
7.0: ABUTH herbicidal rating ([1]; rate 0.0620 kg/ha)
3.0: AMBEL herbicidal rating ([2]; rate 0.0320 kg/ha) | CHEAL herbicidal rating ([4]; rate 0.0320 kg/ha) | GALAP herbicidal rating (GALAP (Galium aparine) [5]; rate 0.0620 kg/ha) | ECHCG herbicidal rating ([7]; rate 0.0620 kg/ha) | ZEAMX herbicidal rating (ZEAMX (Corn, Field) [11]; rate 0.1250 kg/ha) | Preemergence herbicidal rating ABUTH ([12]; rate 0.2500 kg/ha)
2.5: ZEAMX herbicidal rating (ZEAMX (Corn, Field) [11]; rate 0.0620 kg/ha)
9.0: ABUTH herbicidal rating ([1]; rate 0.1250 kg/ha)
1.5: TRZAWR herbicidal rating ([10]; rate 0.0620 kg/ha) | TRZAWR herbicidal rating ([10]; rate 0.1250 kg/ha)
